In patent publication US20250368616A1, “NITROGEN-CONTAINING HETEROCYCLIC DERIVATIVE INHIBITOR, AND PREPARATION METHOD THEREFOR AND USE THEREOF” (SHANGHAI HANSOH BIOMEDICAL CO., LTD., priority 2021, published 2025):

system: Ba/F3 EGFR Del19/C797S cells; assay: Cell proliferation inhibition assay (Cell Titer-Glo), Ba/F3 EGFR Del19/C797S; format: cell-based; conditions: 72 hours, read-out: Ba/F3 EGFR Del19_C797S IC50
Description: Test Example 2: Cell Proliferation Inhibition Assay
Experimental objective: The objective of this test example is to test the inhibitory activity of compounds on the proliferation of different EGFR C797S drug-resistant mutant cell lines Ba/F3 EGFR Del19/T790M/C797S, Ba/F3 EGFR L858R/T790M/C797S, and Ba/F3 EGFR Del19/C797S.
• Ba/F3 EGFR Del19/T790M/C797S cells were purchased from KYinno Biotechnology Co., Ltd.; • Ba/F3 EGFR Del19/C797S cells were purchased from CoBioer Biosciences Co., Ltd.; • Ba/F3 EGFR L858R/T790M/C797S cells were purchased from CoBioer Biosciences Co., Ltd.; • Cell Titer-Glo was purchased from Promega, with a catalog number of G7573; • RPMI 1640 was purchased from Gibco, with a catalog number of 22400089; • FBS was purchased from Gibco, with a catalog number of 10091148; • cell culture plates were purchased from Corning, with a catalog number of 3610.
The inhibitory activity of the compound on the proliferation of different EGFR C797S drug-resistant mutant cell lines was detected using the Cell Titer-Glo method. The different cell lines were cultured in RPMI 1640 complete culture medium containing 10% FBS under conditions of 37° C. and 5% CO2, the cells were collected by centrifugation when growing to a certain density, and adjusted to appropriate cell density after counting, the cells were spread on a white 96-well plate at 90 μL/well, and cultured in a 37° C., 5% CO2 incubator overnight, prepared compound solutions of different concentrations were added at 10 μL/well, corresponding solvent controls were set, and all wells were cultured in a 37° C., 5% CO2 incubator for 72 hours, 50 μL of CellTiter-Glo solution was added to each well, shook and mixed evenly, and incubated in the dark for 10 minutes, and a BioTek Synergy H1 microplate reader was used for reading.
The luminescence signal value was used to calculate the inhibition rate. Graphpad Prism software was used to fit the concentration and inhibition rate to a nonlinear regression curve, so as to obtain the IC50 value, as shown in Tables 3 and 4 below for details.

Row | IC50 [nM] | SMILES
1 | 49 | C#CCn1cc(-c2nccc(Nc3cc4c(C(C)C)ccc(N5C[C@H](CS(C)(=O)=O)[C@H]5C)c4cn3)n2)cn1 [Example 53, 5-isopropyl-8-((2R,3S)-2-methyl-3-((methanesulfonyl)methyl)azetidin-1-yl)-N-(2-(1-(prop-2-yn-1-yl)-1H-pyrazol-4-yl)pyrimidin-4-yl)isoquinolin-3-amine]
2 | 25 | CC(C)c1ccc(N2C[C@H](CS(C)(=O)=O)[C@H]2C)c2cnc(Nc3ccnc(-c4cn(C)nc4C#N)n3)cc12 [Example 55, 4-(4-((5-isopropyl-8-((2R,3S)-2-methyl-3-((methanesulfonyl)methyl)azetidin-1-yl)isoquinolin-3-yl)amino)pyrimidin-2-yl)-1-methyl-1H-pyrazole-3-carbonitrile]
3 | 52 | Cc1nn(CCO)cc1-c1nccc(Nc2cc3c(C(C)C)ccc(N4C[C@H](CS(C)(=O)=O)[C@H]4C)c3cn2)n1 [Example 58, 2-(4-(4-((5-isopropyl-8-((2R,3S)-2-methyl-3-((methanesulfonyl)methyl)azetidin-1-yl)isoquinolin-3-yl)amino)pyrimidin-2-yl)-3-methyl-1H-pyrazol-1-yl)ethan-1-ol]
4 | 95 | CC(C)c1ccc(N2C[C@H](CS(C)(=O)=O)[C@H]2C)c2cnc(Nc3ccnc(-c4cnn([C@@H](C)C(F)(F)F)c4)n3)cc12 [Example 22A, 5-isopropyl-8-((2R,3S)-2-methyl-3-((methanesulfonyl)methyl)azetidin-1-yl)-N-(2-(1-((S)-1,1,1-trifluoropropan-2-yl)-1H-pyrazol-4-yl)pyrimidin-4-yl)isoquinolin-3-amine]
5 | 84 | [2H]C([2H])([2H])n1cc(-c2nccc(Nc3cc4c(C(C)C)ccc(N5C[C@H](CS(C)(=O)=O)[C@H]5C)c4cn3)n2)c(F)n1 [Example 65, N-(2-(3-fluoro-1-(methyl-d3)-1H-pyrazol-4-yl)pyrimidin-4-yl)-5-isopropyl-8-((2R,3S)-2-methyl-3-((methylsulfonyl)methyl)azabut-1-yl)isoquinolin-3-amine]
6 | 82 | CC(C)c1ccc(N2C[C@H](CS(C)(=O)=O)[C@H]2C)c2cnc(Nc3ccnc(-c4cnn(C5(C#N)CC5)c4)n3)cc12 [Example 13, 1-(4-(4-((5-isopropyl-8-((2R,3S)-2-methyl-3-((methanesulfonyl)methyl)azetidin-1-yl)isoquinolin-3-yl)amino)pyrimidin-2-yl)-1H-pyrazol-1-yl)cyclopropane-1-carbonitrile]
7 | 50 | CC(C)c1ccc(N2C[C@H](CS(C)(=O)=O)[C@H]2C)c2cnc(Nc3ccnc(-c4cn(C5COC5)nc4Cl)n3)cc12 [Example 81, N-(2-(3-chloro-1-(oxetan-3-yl)-1H-pyrazol-4-yl)pyrimidin-4-yl)-5-isopropyl-8-((2R,3S)-2-methyl-3-((methanesulfonyl)methyl)azetidin-1-yl)isoquinolin-3-amine]
8 | 41 | COC1(n2cc(-c3nccc(Nc4cc5c(C(C)C)ccc(N6C[C@H](CS(C)(=O)=O)[C@H]6C)c5cn4)n3)cn2)CC1 [Example 49, 5-isopropyl-N-(2-(1-(1-methoxycyclopropyl)-1H-pyrazol-4-yl)pyrimidin-4-yl)-8-((2R,3S)-2-methyl-3-((methanesulfonyl)methyl)azetidin-1-yl)isoquinolin-3-amine]
9 | 49 | CC#CCn1cc(-c2nccc(Nc3cc4c(C(C)C)ccc(N5C[C@H](CS(C)(=O)=O)[C@H]5C)c4cn3)n2)cn1 [Example 52, N-(2-(1-(but-2-yn-1-yl)-1H-pyrazol-4-yl)pyrimidin-4-yl)-5-isopropyl-8-((2R,3S)-2-methyl-3-((methanesulfonyl)methyl)azetidin-1-yl)isoquinolin-3-amine]
10 | 62 | [2H]C([2H])([2H])n1cc(-c2nccc(Nc3cc4c(C(C)C)ccc(N5C[C@H](CS(C)(=O)=O)[C@H]5C)c4cn3)n2)c([N+](=O)[O-])n1 [Example 64, 5-isopropyl-8-((2R,3S)-2-methyl-3-((methanesulfonyl)methyl)azetidin-1-yl)-N-(2-(1-(methyl-d3)-3-nitro-1H-pyrazol-4-yl)pyrimidin-4-yl)isoquinolin-3-amine]
